How the values were obtained:
[1] = Partition coefficient in n-octanol/water (log P) with radiolabeled species; format: physicochemical
Excerpt: Radiolabeled species ([^14C]nonoxynol-9, [^125I]iodinated nonoxynol-9) were used to obtain precise measurements of the log P values. Iodinated nonoxynol-9 was conceptualized to be more lipophilic based upon the work by chemists such as Hammett and Hansch. Hammett determined that the halogens (F, Cl, Br, I), when attached covalently to an aromatic ring, withdrew a portion of the electron density out of the ring. The decrease in electron density causes the ring to be less susceptible to induced polarization by solvent molecules, therefore increasing its lipophilic character. The hydrophobic parameter π, developed by Hansch, reflects a substituent's ability to impart lipophilic character on a molecule (π=log Psubstituted molecule−log […]). Hansch found experimentally that the halogens created a positive π value in most molecular systems which correlated with an increase in the lipophilicity of the compound. […] Additionally, the lengthening of the ethylene oxide chain allows for reduced irritation of the vaginal epithelial lining by reducing the formation of micelles. […] Iodide was chosen as the halogen to substitute nonoxynol-9 due to its relatively large σ and π values it produces when employed as a substituent. With an increase in the hydrophobic character, iodinated nonoxynol-9 should insert into sperm membranes more readily leading to an increase in spermicidal activity. In addition, the molecular weight and size of iodinated nonoxynol-9 is greater than that of nonoxynol-9 which leads to the possibility of the molecule being less bioavailable from vaginally placed dosage forms.

[2] = Solubility and pH of test solutions in dH2O (Table 2); conditions: in dH2O at initial concentration of the Sander-Cramer assay
human spermatozoa = test: Sander-Cramer assay, spermicidal activity; format: cell-based; conditions: for Highest Spermicidal Dilution, median / M.E.C. (minimum effective concentration): solvent dH2O; for Highest Spermicidal Dilution, median: N-9 equimolar 24, kill all spermatozoa within twenty seconds; for M.E.C. (minimum effective concentration): complete spermicidal activity within twenty seconds
Description: N-9 and its iodinated derivatives were assessed in vitro for their ability to kill spermatozoa and HIV virions. The Sander-Cramer assay was performed in order to evaluate the spermicidal activity of the surfactants and their coprecipitates with PVP. This assay determines the minimum lethal dose, reported as a concentration, of spermicide needed to kill all spermatozoa within twenty seconds. The following oligomers were incorporated into coprecipitates with PVP for the in vitro assessment: IN-9 (n=1-17), IN-9 (n=8) and IN-9 (n=13). The neat liquids of N-9 and IN-9 were also assessed for their spermicidal activity. The quantity of active compound in each coprecipitate was determined by a normal phase HPLC analysis and presented as a weight by weight (w/w) percentage. The amount of active compound in each coprecipitate was adjusted by using the w/w percentages so that the assays were conducted using equimolar amounts of active compounds.

free HIV-1-RF = test: Cell-Free HIV Inactivation assay; format: cell-based; conditions: for Infec. Red. (log), Cell-Free HIV Inactivation: two minute incubation; for virucidal activity against cell-free HIV: sufficient if viral titer reduction of at least two log10 units
Description: (§1) The compounds used in the Sander-Cramer assays (neat liquids and coprecipitates) were evaluated for their anti-HIV activity using the Cell-Free and Cell-Associated Inactivation Assays (see Table #3). Both assays employ solutions of active compound at varying concentrations in order to detect the optimal concentration to reduce the infectivity of a predetermined HIV viral load in the form of free HIV-1-RF or RF infected H9 cells. A solution of active compound is determined to have sufficient anti-viral activity if, when tested, a viral titer reduction of at least two log10 units occurs. N-9 and IN-9, in their neat liquid forms, were both found to be virucidal against cell-free and cell-associate HIV. […] The coprecipitates of N-9 (n=1-17) and IN-9 (n=1-17) were also virucidal in both assays.

RF infected H9 cells = test: Cell-Associated HIV Inactivation assay; format: cell-based, HIV-1; conditions: for Infec. Red. (log), Cell-Associated HIV Inactivation: two minute incubation; for virucidal activity against cell-associated HIV: sufficient if viral titer reduction of at least two log10 units
Description: as §1

HIV-1 = conditions: background; cited from earlier work
[3] = background; cited from earlier work
[4] = as determined by 125IN-9, mean ± spread
[5] = as determined by [14C]N-9, mean ± spread

Compound: Mono-iodinated Nonoxynol-9 [IN-9 (n=13)]
- log P [1, 4]: 1.8 ± 0.1

Compound: Mono-iodinated Nonoxynol-9 [IN-9 (n=4)]
- log P [1, 4]: 2.4 ± 0.2

Compound: Mono-iodinated nonoxynol-9 [IN-9 (1-17)]
- Solubility [2]: OK hazy soln.
- MEC times less than that of neat N-9 (n=1-17) (human spermatozoa; neat liquids): over 30 times
- Highest Spermicidal Dilution, median (human spermatozoa): 4096.0
- M.E.C. (minimum effective concentration) (human spermatozoa): 6.0 µg/mL
- Infec. Red. (log), Cell-Free HIV Inactivation (free HIV-1-RF; Conc. 0.0032 %): 0.3 log
- Infec. Red. (log), Cell-Free HIV Inactivation (free HIV-1-RF; Conc. 0.01 %): 2.3 log
- Infec. Red. (log), Cell-Free HIV Inactivation (free HIV-1-RF; Conc. 0.032 %): 3.3 log
- Infec. Red. (log), Cell-Free HIV Inactivation (free HIV-1-RF; Conc. 0.1 %): >4.5 log
- effectiveness in killing HIV compared with N-9 (n=1-17) (free HIV-1-RF; statement on Table 3, both assays): at least as effective in killing HIV as N-9 (n=1-17)
- virucidal activity against cell-free HIV (free HIV-1-RF): virucidal
- effectiveness against cell-associated HIV compared with N-9 (RF infected H9 cells): slightly more effective than N-9
- Infec. Red. (log), Cell-Associated HIV Inactivation (RF infected H9 cells; Conc. 0.0032 %): 1.0 log
- Infec. Red. (log), Cell-Associated HIV Inactivation (RF infected H9 cells; Conc. 0.01 %): 1.8 log
- Infec. Red. (log), Cell-Associated HIV Inactivation (RF infected H9 cells; Conc. 0.032 %): 2.3 log
- Infec. Red. (log), Cell-Associated HIV Inactivation (RF infected H9 cells; Conc. 0.1 %): >5.0 log
- virucidal activity against cell-associated HIV (RF infected H9 cells): virucidal

Compound: Mono-iodinated Nonoxynol-9 [IN-9 (n=11)]
- log P [1, 4]: 2.2 ± 0.1

Compound: Nonoxynol-9 [N-9 (n=11), reference compound]
- log P [1, 5]: 1.3 ± 0.07

Compound: CCCCCCCCCc1ccc(OCCOCCOCCOCCOCCOCCOCCOCCOCCO)cc1 [N-9 (1-17), nonoxynol-9]
- Solubility [2]: OK clear soln.
- Highest Spermicidal Dilution, median (human spermatozoa): 128.0
- M.E.C. (minimum effective concentration) (human spermatozoa): 188.0 µg/mL
- Infec. Red. (log), Cell-Free HIV Inactivation (free HIV-1-RF; Conc. 0.0032 %): 0.3 log
- Infec. Red. (log), Cell-Free HIV Inactivation (free HIV-1-RF; Conc. 0.01 %): 2.3 log
- Infec. Red. (log), Cell-Free HIV Inactivation (free HIV-1-RF; Conc. 0.032 %): >4.5 log
- Infec. Red. (log), Cell-Free HIV Inactivation (free HIV-1-RF; Conc. 0.1 %): >3.5 log
- virucidal activity against cell-free HIV (free HIV-1-RF): virucidal
- inactivation of HIV-1 in vitro (HIV-1): inactivates HIV-1 completely
- vaginal irritation [3]: increase with increased dose
- Infec. Red. (log), Cell-Associated HIV Inactivation (RF infected H9 cells; Conc. 0.0032 %): 0.8 log
- Infec. Red. (log), Cell-Associated HIV Inactivation (RF infected H9 cells; Conc. 0.01 %): 0.8 log
- Infec. Red. (log), Cell-Associated HIV Inactivation (RF infected H9 cells; Conc. 0.032 %): 2.5 log
- Infec. Red. (log), Cell-Associated HIV Inactivation (RF infected H9 cells; Conc. 0.1 %): 3.2 log
- virucidal activity against cell-associated HIV (RF infected H9 cells): virucidal

Compound: Nonoxynol-9 [N-9 (n=8), reference compound]
- log P [1, 5]: 1.4 ± 0.01

Compound: Mono-iodinated Nonoxynol-9 [IN-9 (n=8)]
- log P [1, 4]: 2.2 ± 0.1

Compound: Nonoxynol-9 [N-9 (n=4), reference compound]
- log P [1, 5]: 1.6 ± 0.05

From US20010036965A1, “Iodo-nonoxynol-9-derivatives and methods for their use” (The Medical College of Hampton Roads, Eastern Virginia …, priority 1999, published 2001)
